Molecular target: Leucine-rich repeat serine/threonine-protein kinase 2 (Homo sapiens, UniProt Q5S007, G2019S)
Assay: Inhibition of recombinant human GST tagged LRRK2 G2019S mutant catalytic domain (970 to 2527 residues) expressed in baculovirus expression system using fluorescein-labeled LRRKtide as substrate preincubated for 15 mins followed by substrate addition and measured after 90 mins by TR-FRET based Lanthascreen assay

Leucine-rich repeat serine/threonine-protein kinase 2, sequence (Q5S007 whole entry G2019S, the tested form may be a part): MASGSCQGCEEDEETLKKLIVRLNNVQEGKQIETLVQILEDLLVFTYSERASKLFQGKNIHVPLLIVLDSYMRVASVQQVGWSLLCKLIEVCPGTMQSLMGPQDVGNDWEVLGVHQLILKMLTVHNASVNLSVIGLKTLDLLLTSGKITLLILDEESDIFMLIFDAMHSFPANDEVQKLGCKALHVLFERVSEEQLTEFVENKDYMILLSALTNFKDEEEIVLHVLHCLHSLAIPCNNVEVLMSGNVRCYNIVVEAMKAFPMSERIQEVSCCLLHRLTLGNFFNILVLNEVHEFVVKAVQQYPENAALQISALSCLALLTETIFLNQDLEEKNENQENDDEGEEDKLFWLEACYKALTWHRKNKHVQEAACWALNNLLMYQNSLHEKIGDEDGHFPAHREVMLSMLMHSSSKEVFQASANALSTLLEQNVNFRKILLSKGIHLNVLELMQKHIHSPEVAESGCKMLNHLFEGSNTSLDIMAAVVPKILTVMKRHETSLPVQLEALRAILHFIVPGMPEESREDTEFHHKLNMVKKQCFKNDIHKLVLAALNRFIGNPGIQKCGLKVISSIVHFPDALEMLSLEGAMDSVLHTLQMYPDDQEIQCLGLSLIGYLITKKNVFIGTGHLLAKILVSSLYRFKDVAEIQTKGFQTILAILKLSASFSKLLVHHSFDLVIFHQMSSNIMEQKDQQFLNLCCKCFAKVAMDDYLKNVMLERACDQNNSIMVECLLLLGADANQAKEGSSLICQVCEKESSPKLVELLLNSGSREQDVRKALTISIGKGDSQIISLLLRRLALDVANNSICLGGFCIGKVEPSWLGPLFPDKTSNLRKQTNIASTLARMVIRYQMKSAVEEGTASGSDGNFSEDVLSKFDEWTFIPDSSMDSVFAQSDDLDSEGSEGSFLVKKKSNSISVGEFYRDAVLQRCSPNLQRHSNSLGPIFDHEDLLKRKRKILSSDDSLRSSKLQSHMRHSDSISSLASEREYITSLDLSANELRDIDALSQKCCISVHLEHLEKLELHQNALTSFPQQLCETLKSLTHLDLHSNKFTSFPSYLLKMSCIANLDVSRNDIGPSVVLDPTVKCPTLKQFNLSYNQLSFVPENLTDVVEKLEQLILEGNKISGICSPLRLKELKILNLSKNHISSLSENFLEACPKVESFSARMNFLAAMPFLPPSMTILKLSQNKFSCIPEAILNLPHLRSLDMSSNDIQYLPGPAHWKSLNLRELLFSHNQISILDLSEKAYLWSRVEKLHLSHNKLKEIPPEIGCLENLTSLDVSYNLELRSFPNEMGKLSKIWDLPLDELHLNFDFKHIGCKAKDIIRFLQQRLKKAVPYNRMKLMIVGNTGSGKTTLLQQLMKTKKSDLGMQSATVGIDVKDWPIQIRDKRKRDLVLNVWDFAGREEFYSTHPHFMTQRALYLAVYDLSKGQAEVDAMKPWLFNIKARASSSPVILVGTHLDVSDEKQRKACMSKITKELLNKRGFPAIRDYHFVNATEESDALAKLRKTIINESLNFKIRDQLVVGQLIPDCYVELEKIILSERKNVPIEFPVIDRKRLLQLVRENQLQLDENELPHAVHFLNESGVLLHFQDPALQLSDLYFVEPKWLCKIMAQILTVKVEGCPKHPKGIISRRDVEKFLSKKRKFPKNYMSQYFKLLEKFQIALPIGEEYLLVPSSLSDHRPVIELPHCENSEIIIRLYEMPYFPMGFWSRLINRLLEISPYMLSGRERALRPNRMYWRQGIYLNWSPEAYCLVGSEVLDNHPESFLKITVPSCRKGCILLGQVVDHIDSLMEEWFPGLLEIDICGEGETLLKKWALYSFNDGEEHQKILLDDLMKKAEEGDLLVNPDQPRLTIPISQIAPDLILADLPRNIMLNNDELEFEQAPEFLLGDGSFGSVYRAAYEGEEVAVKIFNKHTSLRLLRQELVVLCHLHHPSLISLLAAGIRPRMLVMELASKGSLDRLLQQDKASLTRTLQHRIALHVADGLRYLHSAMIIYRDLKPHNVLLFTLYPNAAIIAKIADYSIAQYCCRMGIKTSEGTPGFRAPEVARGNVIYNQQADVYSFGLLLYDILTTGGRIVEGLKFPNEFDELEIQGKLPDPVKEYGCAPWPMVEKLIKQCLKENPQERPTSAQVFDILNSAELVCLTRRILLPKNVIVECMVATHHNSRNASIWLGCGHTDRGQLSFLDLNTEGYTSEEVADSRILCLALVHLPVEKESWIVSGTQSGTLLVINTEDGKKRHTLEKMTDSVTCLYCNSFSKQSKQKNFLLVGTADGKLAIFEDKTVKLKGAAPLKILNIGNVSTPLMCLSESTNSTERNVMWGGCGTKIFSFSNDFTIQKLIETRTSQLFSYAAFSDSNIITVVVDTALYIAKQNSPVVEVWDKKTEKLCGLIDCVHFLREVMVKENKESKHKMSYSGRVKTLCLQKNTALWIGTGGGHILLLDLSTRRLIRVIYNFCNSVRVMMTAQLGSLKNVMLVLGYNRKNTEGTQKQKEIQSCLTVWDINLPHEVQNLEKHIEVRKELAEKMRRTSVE

Row | SMILES | IC50 [nM]
1 | CC1(N2CCC(c3cc4c(cnn4-c4cnn(C56CC(C5)C6)c4)cc3Cl)CC2)COC1 | 0.71
2 | CC1(N2CCC(c3cc4c(cnn4-c4cnn(C56CC(C#N)(C5)C6)c4)cc3Cl)CC2)COC1 | < 0.625
3 | Cn1cc(-n2ncc3cc(Cl)c(C4CCN(C5(C)CCOC5)CC4)cc32)cn1 (stereo not drawn) | < 0.625

From ChEMBL document CHEMBL4706723, “Novel N-Heteroaryl Indazole Derivatives as LRRK2 Inhibitors for Treating Parkinson's Disease” (ACS Med Chem Lett, 2021)
